# Reference: patent US20140045806A1 (priority 2012, published 2014)
# Several values for one entry are separate records, joined by “and”; a condition that tells them apart may be missing. Equal entries are not always repeated. Marks after values point to notes of the source that are not given here.
# Tested on: postmenopausal women
# Test: ERC-210 phase III trial, Abbreviated Sexual Function (ASF) questionnaire
# Format: in vivo
# Description: The example below is intended only to illustrate a particular embodiment of the present invention and is not meant to limit the scope of the invention in any manner. This study (ERC-210) is a phase III, prospective, multicentre, randomized, placebo-controlled, and double-blind trial. […] The DHEA ovules or suppositories (Vaginorm™) containing prasterone in a lipophilic base were manufactured by Recipharm, Karlskoga, Sweden. The study was divided into two phases, namely screening followed by a treatment period of 12 weeks. The protocol was approved by the Institutional Review Board of the Centre Hospitalier de I'Université Laval (Quebec City, Canada), McGill University (Montreal, Canada), Ethica (Montreal, Canada), Eastern Virginia Medical School (Norfolk, Va., USA) and the Western Institutional Review Board (Los Angeles, USA).
# The inclusion and exclusion criteria were as described in (Labrie, Archer et al. 2009b). A written informed consent was obtained from all subjects prior to the performance of any study-related procedure. […] A partial gynecological examination was performed to evaluate the aspect of the mucosa and tolerance to the medication on day 1 and at all visits. The standard laboratory tests, namely hematology (including complete blood count and coagulation), blood chemistry and urinalysis were performed at screening, day 1 and at all visits. Summary tabulations were prepared displaying the number of observations, mean or geometric mean as appropriate, SD; SEM, 95% two-sided CI; median, minimum, and maximum for continuous variables; and the number and percentage per category for categorical data. Statistical analyses were performed at the two-sided significance level of 0.05 unless otherwise stated. […] The endpoints for analysis consisted of the following: desire/interest, arousal and orgasm were self-rated by the women at screening, at day 1, and at week 4, 8 and 12 using the ASF and MENQOL questionnaires. Baseline was defined as the value on day 1, obtained before first use of the study treatment, and change from baseline to week 12 was calculated for each participant for each domain endpoint. The analysis comparing each dose of DHEA to placebo was performed by analysis of covariance, with the baseline value used as the covariate. Missing values were replaced by the last observation made.
# The other questionnaire used in our study to investigate sexual dysfunction has been the Abbreviated Sexual Function (ASF) questionnaire. […] When the groups with no MS pain are considered, improvements of −1.2% (p=0.9028), 31% (p=0.0337), 4.8% (p=0.3706) and 3.7% (p=0.5372) are observed compared to 12% (p=0.0134), 32% (p=0.1349), 16% (p=0.8546) and 29% (p=0.0341) in the corresponding MS pain groups.
# When the orgasm domain of the ASF questionnaire is analyzed, a strong placebo effect is observed in response to the composite of the three following questions; a) over the last 4 weeks, how often did you have an orgasm when you took part in sexual activity (may be with or without partner); b) over the last 4 weeks, in general, how pleasurable were the orgasms the you had and; c) over the last 4 weeks, in general, how easy was it for you to reach orgasm?
# [1] = 0.25% DHEA intravaginal daily 12 weeks, MS pain at sexual activity at baseline
# [2] = 0.25% DHEA intravaginal daily 12 weeks, all subjects (ITT)
# [3] = 0.25% DHEA intravaginal daily 12 weeks, no MS pain at sexual activity at baseline
# [4] = 0.5% DHEA intravaginal daily 12 weeks, MS pain at sexual activity at baseline
# [5] = 0.5% DHEA intravaginal daily 12 weeks, all subjects (ITT)
# [6] = 0.5% DHEA intravaginal daily 12 weeks, no MS pain at sexual activity at baseline
# [7] = 1.0% DHEA intravaginal daily 12 weeks, no MS pain at sexual activity at baseline
# [8] = Pool 3 Doses DHEA intravaginal daily 12 weeks, MS pain at sexual activity at baseline
# [9] = Pool 3 Doses DHEA intravaginal daily 12 weeks, MS pain at sexual activity at baseline, listed as prasterone
# [10] = Pool 3 Doses DHEA intravaginal daily 12 weeks, all subjects (ITT)
# [11] = Pool 3 Doses DHEA intravaginal daily 12 weeks, all subjects (ITT), listed as prasterone
# [12] = Pool 3 Doses DHEA intravaginal daily 12 weeks, no MS pain at sexual activity at baseline
# [13] = Pool 3 Doses DHEA intravaginal daily 12 weeks, no MS pain at sexual activity at baseline, listed as prasterone
# [14] = average of the 3 DHEA doses, MS PAIN at baseline
# [15] = average of the 3 DHEA doses, NO MS PAIN at baseline
# [16] = average of the 3 DHEA doses, TOTAL (all women)
smiles,measurement,setting,value
"C[C@]12CC[C@H](O)CC1=CC[C@@H]1[C@@H]2CC[C@]2(C)C(=O)CC[C@@H]12 [DHEA, (3β)-3-Hydroxyandrost-5-en-17-one]","ASF Arousal/lubrication score, average % change from baseline to Week 12 (increased from baseline)",[1],189%
same,"ASF Arousal/sensation score, average % change from baseline to Week 12 (increased from baseline)",[1],97%
same,"ASF Desire score, average % change from baseline to Week 12 (increased from baseline)",[1],32%
same,"ASF Orgasm score, average % change from baseline to Week 12 (increased from baseline)",[1],66%
same,"ASF SUMMARY SCORE, average % change from baseline to Week 12 (increased from baseline)",[1],59%
same,"ASF Arousal/sensation score, average % change from baseline to Week 12 (increased from baseline)",[2],80%
same,"ASF Orgasm score, average % change from baseline to Week 12 (increased from baseline)",[2],64%
same,"ASF Arousal/lubrication score, average % change from baseline to Week 12 (increased from baseline)",[3],95%
same,"ASF Arousal/sensation score, average % change from baseline to Week 12 (increased from baseline)",[3],43%
same,"ASF Orgasm score, average % change from baseline to Week 12 (increased from baseline)",[3],59%
same,"ASF SUMMARY SCORE, average % change from baseline to Week 12 (increased from baseline)",[3],42%
same,"ASF Arousal/sensation score, average % change from baseline to Week 12 (increased from baseline)",[4],66%
same,"ASF Desire score, average % change from baseline to Week 12 (increased from baseline)",[4],16%
same,"ASF Orgasm score, average % change from baseline to Week 12 (increased from baseline)",[4],51%
same,"ASF SUMMARY SCORE, average % change from baseline to Week 12 (increased from baseline)",[4],42%
same,"ASF Desire score, average % change from baseline to Week 12 (increased from baseline)",[5],13%
same,"ASF Orgasm score, average % change from baseline to Week 12 (increased from baseline)",[5],53%
same,"ASF SUMMARY SCORE, average % change from baseline to Week 12 (increased from baseline)",[5],39%
same,"ASF Arousal/lubrication score, average % change from baseline to Week 12 (increased from baseline)",[6],106%
same,"ASF Arousal/sensation score, average % change from baseline to Week 12 (increased from baseline)",[6],103%
same,"ASF Desire score, average % change from baseline to Week 12 (increased from baseline)",[6],4.8%
same,"ASF Orgasm score, average % change from baseline to Week 12 (increased from baseline)",[6],56%
same,"ASF SUMMARY SCORE, average % change from baseline to Week 12 (increased from baseline)",[6],31%
same,"ASF Orgasm score, average % change from baseline to Week 12 (increased from baseline)","1.0% DHEA intravaginal daily 12 weeks, MS pain at sexual activity at baseline",76%
same,"ASF Orgasm score, average % change from baseline to Week 12 (increased from baseline)","1.0% DHEA intravaginal daily 12 weeks, all subjects (ITT)",71%
same,"ASF Arousal/lubrication score, average % change from baseline to Week 12 (increased from baseline)",[7],63%
same,"ASF Arousal/sensation score, average % change from baseline to Week 12 (increased from baseline)",[7],30%
same,"ASF Desire score, average % change from baseline to Week 12 (increased from baseline)",[7],3.7%
same,"ASF Orgasm score, average % change from baseline to Week 12 (increased from baseline)",[7],50%
same,"ASF SUMMARY SCORE, average % change from baseline to Week 12 (increased from baseline)",[7],21%
same,"Sum of changes above placebo, ASF domains",MS group,209.4%
same,"ASF Arousal/lubrication score, average % change from baseline to Week 12 (increased from baseline)",[8],171%**
same,"ASF Arousal/sensation score, average % change from baseline to Week 12 (increased from baseline)",[8],76.2%*
same,"ASF Desire score, average % change from baseline to Week 12 (increased from baseline)",[8],24.9%
same,"ASF Orgasm score, average % change from baseline to Week 12 (increased from baseline)",[8],64.3%
same,"ASF Arousal/lubrication score, average % change from baseline to Week 12 (increased from baseline)",[9],171%
same,"ASF Arousal/sensation score, average % change from baseline to Week 12 (increased from baseline)",[9],76.2%
same,"ASF Desire score, average % change from baseline to Week 12 (increased from baseline)",[9],24.9%
same,"ASF Orgasm score, average % change from baseline to Week 12 (increased from baseline)",[9],64.3%
same,"ASF Arousal/lubrication score, average % change from baseline to Week 12 (increased from baseline)",[10],149%**
same,"ASF Arousal/sensation score, average % change from baseline to Week 12 (increased from baseline)",[10],71.2%**
same,"ASF Desire score, average % change from baseline to Week 12 (increased from baseline)",[10],21.0%*
same,"ASF Orgasm score, average % change from baseline to Week 12 (increased from baseline)",[10],62.4%
same,"ASF SUMMARY SCORE, average % change from baseline to Week 12 (increased from baseline)",[10],46.6%**
same,"ASF Arousal/lubrication score, average % change from baseline to Week 12 (increased from baseline)",[11],149%
same,"ASF Arousal/sensation score, average % change from baseline to Week 12 (increased from baseline)",[11],71.2%
same,"ASF Desire score, average % change from baseline to Week 12 (increased from baseline)",[11],21.0%
same,"ASF Orgasm score, average % change from baseline to Week 12 (increased from baseline)",[11],62.4%
same,"ASF SUMMARY SCORE, average % change from baseline to Week 12 (increased from baseline)",[11],46.6%
same,"ASF Arousal/lubrication score, average % change from baseline to Week 12 (increased from baseline)",[12],84.6%
same,"ASF Arousal/sensation score, average % change from baseline to Week 12 (increased from baseline)",[12],52.7%
same,"ASF Desire score, average % change from baseline to Week 12 (increased from baseline)",[12],14.0%
same,"ASF Orgasm score, average % change from baseline to Week 12 (increased from baseline)",[12],55.3%
same,"ASF SUMMARY SCORE, average % change from baseline to Week 12 (increased from baseline)",[12],31.1%
same,"ASF Arousal/lubrication score, average % change from baseline to Week 12 (increased from baseline)",[13],84.6%
same,"ASF Arousal/sensation score, average % change from baseline to Week 12 (increased from baseline)",[13],52.7%
same,"ASF Desire score, average % change from baseline to Week 12 (increased from baseline)",[13],14.0%
same,"ASF Orgasm score, average % change from baseline to Week 12 (increased from baseline)",[13],55.3%
same,"ASF Arousal/lubrication, average % change from baseline to Week 12 in severity score over placebo",[14],118%**
same,"ASF Arousal/sensation, average % change from baseline to Week 12 in severity score over placebo",[14],64.2%*
same,"ASF Desire, average % change from baseline to Week 12 in severity score over placebo",[14],12.9%
same,"ASF Orgasm, average % change from baseline to Week 12 in severity score over placebo",[14],14.3%
same,"ASF Arousal/lubrication, average % change from baseline to Week 12 in severity score over placebo",[15],67.6%
same,"ASF Arousal/sensation, average % change from baseline to Week 12 in severity score over placebo",[15],58.0%
same,"ASF Desire, average % change from baseline to Week 12 in severity score over placebo",[15],15.2%
same,"ASF Orgasm, average % change from baseline to Week 12 in severity score over placebo",[15],59.4%
same,"ASF Summary score, average % change from baseline to Week 12 in severity score over placebo",[15],32.1%
same,"ASF Arousal/lubrication, average % change from baseline to Week 12 in severity score over placebo",[16],104%**
same,"ASF Arousal/sensation, average % change from baseline to Week 12 in severity score over placebo",[16],62.6%**
same,"ASF Desire, average % change from baseline to Week 12 in severity score over placebo",[16],12.3%*
same,"ASF Orgasm, average % change from baseline to Week 12 in severity score over placebo",[16],26.4%
same,"Sum of changes above placebo, ASF domains",non MS group,200.2% and 202.2%
same,"Specificity of the effect of DHEA, ASF",non MS pain group versus MS pain group,30 fold
